Assay in all cases: Competitive isoTOP-ABPP, cell lysates
Common to all, as to type: binding
Holding throughout (conditions): 500 μm, in-vitro_ramos_231

One assay has as its target T1, ACAT1 C413 (P24752) (Homo sapiens, UniProt P24752).
T1 sequence (P24752 34-427): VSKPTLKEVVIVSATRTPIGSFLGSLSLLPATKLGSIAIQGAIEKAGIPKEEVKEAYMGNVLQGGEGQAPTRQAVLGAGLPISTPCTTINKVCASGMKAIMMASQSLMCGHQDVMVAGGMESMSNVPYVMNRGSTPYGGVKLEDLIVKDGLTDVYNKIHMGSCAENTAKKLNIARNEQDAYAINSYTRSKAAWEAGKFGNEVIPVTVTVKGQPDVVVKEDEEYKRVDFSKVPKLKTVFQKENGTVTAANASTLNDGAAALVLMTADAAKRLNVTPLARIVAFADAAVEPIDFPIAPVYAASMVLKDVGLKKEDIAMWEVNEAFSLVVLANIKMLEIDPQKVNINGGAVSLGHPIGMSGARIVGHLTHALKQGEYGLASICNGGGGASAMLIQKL

The target of another assay is T2, ACAT1 C119 (P24752) (Homo sapiens, UniProt P24752).
T2 sequence (P24752 34-427): T1 sequence (P24752 34-427)

A further assay addresses T3, ACAT1 C196 (P24752) (Homo sapiens, UniProt P24752).
T3 sequence (P24752 34-427): T1 sequence (P24752 34-427)

The next assay has as its target PRMT1 C109 (Q99873) (Homo sapiens, UniProt Q99873). As for the experimental part: (§1) TEV digests were pressure loaded onto a 250 μm (inner diameter) fused silica capillary column packed with C18 resin (Aqua 5 μm, Phenomenex). The samples were analyzed by multidimensional liquid chromatography tandem mass spectrometry (MudPIT), using an LTQ-Velos Orbitrap mass spectrometer (Thermo Scientific) coupled to an Agilent 1200-series quaternary pump. The peptides were eluted onto a biphasic column with a 5 μm tip (100 μm fused silica, packed with C18 (10 cm) and bulk strong cation exchange resin (3 cm, SCX, Phenomenex,)) in a 5-step MudPIT experiment, using 0%, 30%, 60%, 90%, and 100% salt bumps of 500 mM aqueous ammonium acetate and using a gradient of 5-100% buffer B in buffer A (buffer A: 95% water, 5% acetonitrile, 0.1% formic acid; buffer B: 5% water, 95% acetonitrile, 0.1% formic acid) as has been described in Weerapana et al. Nat Protoc 2:1414-1425 (2007). Data was collected in data-dependent acquisition mode with dynamic exclusion enabled (20 s, repeat of 2). One full MS (MS1) scan (400-1800 m/z) was followed by 30 MS2 scans (ITMS) of the nth most abundant ions.
(§2) The ratios of heavy/light for each unique peptide (DMSO/compound treated; isoTOP-ABPP ratios, R values) were quantified with in-house CIMAGE software, using default parameters (3 ms s per peak and signal to noise threshold 2.5). Site-specific engagement of electrophilic fragments was assessed by blockade of IA-alkyne probe labeling. […] Ratios for unique peptide entries were calculated for each experiment; overlapping peptides with the same modified cysteine (e.g. different charge states, MudPIT chromatographic steps or tryptic termini) were grouped together and the median ratio was reported as the final ratio (R). The peptide ratios reported by CIMAGE were further filtered to ensure the removal or correction of low quality ratios in each individual dataset. The quality filters applied were the following: removal of half tryptic peptides; for ratios with high standard deviations from the median (90% of the median or above) the lowest ratio was taken instead of the median; removal of peptides with R=20 and only a single ms2 event triggered during the elution of the parent ion; manual annotation of all the peptides with ratios of 20, removing any peptides with low-quality elution profiles that remained after the previous curation steps. Proteome reactivity values for individual fragments were computed as the percentage of the total quantified cysteine-containing peptides with R values≥4 (defined as liganded cysteines) for each replicate experiment and the final proteome reactivity value was calculated as the mean for all replicate experiments for each fragment from both MDA-MB-231 and Ramos cellular proteomes.
(§3) Biological replicates of the same compound and cell-line were averaged if the standard deviation was below 60% of the mean; otherwise the lowest value of the ratio set was taken.

Another assay deals with GSTP1 C48 (P09211) (Homo sapiens, UniProt P09211). As for the experimental part:
as §1, §2, §3

The next assay addresses IDH1 C269 (O75874) (Homo sapiens, UniProt O75874). How it is done: as §1, §2, §3
In the next assay the target is GNB2L1 C182 (P63244) (Homo sapiens, UniProt P63244). How it is done:
as §1, §2, §3

The target of the next assay is XPO1 C34 (O14980) (Homo sapiens, UniProt O14980). As for the experimental part: as §1, §2, §3
The next assay concerns the target T4, IDH2 C308 (P48735) (Homo sapiens, UniProt P48735).
T4 sequence (P48735 40-452): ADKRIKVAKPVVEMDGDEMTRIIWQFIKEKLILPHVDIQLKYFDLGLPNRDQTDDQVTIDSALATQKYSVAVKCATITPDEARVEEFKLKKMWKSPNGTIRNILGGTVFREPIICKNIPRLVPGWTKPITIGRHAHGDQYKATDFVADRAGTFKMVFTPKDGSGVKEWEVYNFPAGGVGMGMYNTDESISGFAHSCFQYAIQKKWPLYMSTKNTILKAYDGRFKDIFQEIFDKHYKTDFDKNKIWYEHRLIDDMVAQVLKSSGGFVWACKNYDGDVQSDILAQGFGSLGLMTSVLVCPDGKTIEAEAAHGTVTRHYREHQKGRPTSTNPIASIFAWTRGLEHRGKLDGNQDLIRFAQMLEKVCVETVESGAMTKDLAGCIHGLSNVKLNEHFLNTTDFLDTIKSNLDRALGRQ
How it is done:
as §1, §2, §3

A further assay addresses SMARCC2 C145 (Q8TAQ2) (Homo sapiens, UniProt Q8TAQ2). How it is done:
as §1, §2, §3

Another assay concerns the target SAMHD1 C522 (Q9Y3Z3) (Homo sapiens, UniProt Q9Y3Z3). As for the experimental part: as §1, §2, §3
In a further assay the target is T5, PDE12 C108 (Q6L8Q7) (Homo sapiens, UniProt Q6L8Q7).
T5 sequence (Q6L8Q7 43-609): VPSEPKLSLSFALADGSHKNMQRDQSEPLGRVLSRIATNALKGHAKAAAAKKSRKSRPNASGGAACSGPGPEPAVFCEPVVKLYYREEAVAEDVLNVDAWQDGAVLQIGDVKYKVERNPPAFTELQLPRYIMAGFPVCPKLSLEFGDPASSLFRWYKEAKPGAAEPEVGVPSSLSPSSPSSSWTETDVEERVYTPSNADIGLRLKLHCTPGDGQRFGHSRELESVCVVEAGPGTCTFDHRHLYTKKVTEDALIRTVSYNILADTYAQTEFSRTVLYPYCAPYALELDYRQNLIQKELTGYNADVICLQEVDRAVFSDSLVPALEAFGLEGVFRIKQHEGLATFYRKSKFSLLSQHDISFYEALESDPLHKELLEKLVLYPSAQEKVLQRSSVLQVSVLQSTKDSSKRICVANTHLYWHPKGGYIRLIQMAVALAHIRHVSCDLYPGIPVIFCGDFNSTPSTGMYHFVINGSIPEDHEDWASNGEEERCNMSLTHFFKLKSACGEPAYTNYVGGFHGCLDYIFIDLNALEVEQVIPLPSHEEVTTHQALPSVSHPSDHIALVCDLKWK
How it is done:
as §1, §2, §3

The next assay has as its target T6, PDIA6 C55 (Q15084) (Homo sapiens, UniProt Q15084).
T6 sequence (Q15084 20-440): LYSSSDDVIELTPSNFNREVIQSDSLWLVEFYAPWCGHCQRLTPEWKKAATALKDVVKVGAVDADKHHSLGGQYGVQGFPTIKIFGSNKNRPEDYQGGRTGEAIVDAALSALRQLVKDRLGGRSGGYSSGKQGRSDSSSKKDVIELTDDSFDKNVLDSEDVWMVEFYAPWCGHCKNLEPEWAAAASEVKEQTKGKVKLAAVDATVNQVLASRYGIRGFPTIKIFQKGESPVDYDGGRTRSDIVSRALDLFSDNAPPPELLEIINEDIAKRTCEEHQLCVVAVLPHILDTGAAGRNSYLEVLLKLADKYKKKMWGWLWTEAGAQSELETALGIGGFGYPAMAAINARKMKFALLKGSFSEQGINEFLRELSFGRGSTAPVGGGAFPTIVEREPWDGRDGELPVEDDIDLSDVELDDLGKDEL
How it is done:
as §1, §2, §3

For a further assay, the target named is T7, PDIA6 C190 (Q15084) (Homo sapiens, UniProt Q15084).
T7 sequence (Q15084 20-440): T6 sequence (Q15084 20-440)
As for the experimental part: as §1, §2, §3

The next assay addresses UBE2L3 C86 (P68036) (Homo sapiens, UniProt P68036). As for the experimental part:
as §1, §2, §3

A further assay addresses ZNF217 C286 (O75362) (Homo sapiens, UniProt O75362). As for the experimental part:
as §1, §2, §3

For a further assay, the target named is T8, UBE2S C118 (Q16763) (Homo sapiens, UniProt Q16763).
T8 sequence (Q16763 1-222): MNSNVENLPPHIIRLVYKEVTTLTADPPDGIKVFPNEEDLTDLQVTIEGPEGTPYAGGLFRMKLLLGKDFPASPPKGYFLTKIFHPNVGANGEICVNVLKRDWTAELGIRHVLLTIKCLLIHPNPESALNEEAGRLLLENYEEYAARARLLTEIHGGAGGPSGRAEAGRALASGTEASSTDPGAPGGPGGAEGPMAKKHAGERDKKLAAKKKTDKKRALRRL
How it is done: as §1, §2, §3

Data on 2 compounds can be found in patent publication US10670605B2, “Cysteine reactive probes and uses thereof” (The Scripps Research Institute, priority 2015, dated 2020).

Molecules are shown by their SMILES.

For `O=C(CCl)Nc1cc(C(=O)O)cc(C(F)(F)F)c1` [compound 36], at ACAT1 C413 (P24752), the “isoTOP-ABPP reactivity ratio, P24752_C413” value stood at 2.7. Besides, the “isoTOP-ABPP reactivity ratio, P24752_C119” value on ACAT1 C119 (P24752) is recorded as 1.2. For the same compound, the “isoTOP-ABPP reactivity ratio, P24752_C196” value at ACAT1 C196 (P24752) is recorded as 1.5. The “isoTOP-ABPP reactivity ratio, Q99873_C109” value on PRMT1 C109 (Q99873) was 1.0. At GSTP1 C48 (P09211), the “isoTOP-ABPP reactivity ratio, P09211_C48” value came out at 1.6. For the same compound, on IDH1 C269 (O75874), the “isoTOP-ABPP reactivity ratio, O75874_C269” value is 1.7. Besides, the “isoTOP-ABPP reactivity ratio, P63244_C182” value at GNB2L1 C182 (P63244) was determined as 1.3. Further, at XPO1 C34 (O14980), the “isoTOP-ABPP reactivity ratio, O14980_C34” value is reported as 1.3. For the same compound, the “isoTOP-ABPP reactivity ratio, P48735_C308” value on IDH2 C308 (P48735) is 1.3.

Regarding `COC(=O)C1Cc2ccccc2CN1C(=O)CCl` (stereo not drawn) [compound 39], the “isoTOP-ABPP reactivity ratio, P24752_C413” value at ACAT1 C413 (P24752) is recorded as 2.7. In addition, the “isoTOP-ABPP reactivity ratio, P24752_C119” value on ACAT1 C119 (P24752) was found to be 1.7. For the same compound, the “isoTOP-ABPP reactivity ratio, P24752_C196” value at ACAT1 C196 (P24752) stood at 3.0. Also, the “isoTOP-ABPP reactivity ratio, Q99873_C109” value on PRMT1 C109 (Q99873) worked out at 1.5. Also, the “isoTOP-ABPP reactivity ratio, Q8TAQ2_C145” value at SMARCC2 C145 (Q8TAQ2) came to 1.2. Also, the “isoTOP-ABPP reactivity ratio, P09211_C48” value at GSTP1 C48 (P09211) was 2.0. The “isoTOP-ABPP reactivity ratio, Q9Y3Z3_C522” value on SAMHD1 C522 (Q9Y3Z3) worked out at 1.1. At GNB2L1 C182 (P63244), the “isoTOP-ABPP reactivity ratio, P63244_C182” value was 1.0. Further, on XPO1 C34 (O14980), the “isoTOP-ABPP reactivity ratio, O14980_C34” value is recorded as 1.3. For the same compound, the “isoTOP-ABPP reactivity ratio, Q6L8Q7_C108” value at PDE12 C108 (Q6L8Q7) was 3.2. Also, the “isoTOP-ABPP reactivity ratio, Q15084_C55” value at PDIA6 C55 (Q15084) is 3.9. Also, the “isoTOP-ABPP reactivity ratio, Q15084_C190” value at PDIA6 C190 (Q15084) is given as 7.0. Moreover, the “isoTOP-ABPP reactivity ratio, P68036_C86” value on UBE2L3 C86 (P68036) is 1.9. The “isoTOP-ABPP reactivity ratio, O75362_C286” value at ZNF217 C286 (O75362) turned out to be 20.0. For the same compound, the “isoTOP-ABPP reactivity ratio, Q16763_C118” value on UBE2S C118 (Q16763) is recorded as 1.4.
